Biological target: T1, human T-type channel alpha-1H (CaV 3.2) (Homo sapiens, UniProt O95180)
T1 construct: expressed in transfected cells; host or cells: HEK 293
Test: Ca2+ Influx Assay (cell-based fluorescent, FDSS)
Details: HEK 293 cells expressing human CaV 3.2
Protocol: Inhibition of T-type calcium channel activity was determined by cell-based flu-orescent Ca^2+ influx assay, in which potassium ionophore was added to decrease resting membrane potential and extra-cellular high-K^+ stimulation was used to modulate the membrane potential of the cell. The changes in fluorescent signal were monitored by the cell imaging technology by Hamamatsu Photonics's Functional Drug Screening System (FDSS).
HEK 293 cells expressing the human T-type channel alpha-1H (CaV 3.2) were maintained in DMEM supplemented with 10% heat-inactivated FBS, 100 units/ml Penicillin, 100 microg/ml Streptomycin, 150 microg/ml Zeocin, 300 microg/ml Geneticin. The cells were grown in a 5% CO2 humidified incubator at 37° C.
• 1. Cells were harvested and seeded in a poly-D-lysine coated black-sided clear bottom 384-well plate at density of 10,000 cells/well at 24 hours prior to assay. • 2. Incubate at 37° C. in 5% CO2. Day Two: • 1. Wash each well with assay buffer (see below) and leave 20 RI using plate washer, ELx-405 Select CW (BIO-TEK). • 2. Add 20 μL of assay buffer containing 6 μM Fluo-4-AM (Molecular Probes) and 0.005% Pluronic F-127 to each well. • 3. Incubate the plate at 37° C. for 1 hour. • 4. Wash each well assay buffer (see below) and leave 20 μl using plate washer, ELx-405 Select CW (BIO-TEK). • 5. Add 10 μl of compound solution into each well by FDSS6000 and leave the plate for 4.5 min, and then add 10 μl of potassium ionophore solution. • 6. Add 20 μl of high-K^+ depolarizing solution (see below) and monitor the change of fluorescent signal.
The IC50 values for compounds of the present invention were determined from 7-point dose-response studies. Curves were generated using the average of duplicate wells for each data point. Finally, the IC50 values are calculated with the best-fit dose curve determined by XLfit.

T1 sequence (O95180 whole entry): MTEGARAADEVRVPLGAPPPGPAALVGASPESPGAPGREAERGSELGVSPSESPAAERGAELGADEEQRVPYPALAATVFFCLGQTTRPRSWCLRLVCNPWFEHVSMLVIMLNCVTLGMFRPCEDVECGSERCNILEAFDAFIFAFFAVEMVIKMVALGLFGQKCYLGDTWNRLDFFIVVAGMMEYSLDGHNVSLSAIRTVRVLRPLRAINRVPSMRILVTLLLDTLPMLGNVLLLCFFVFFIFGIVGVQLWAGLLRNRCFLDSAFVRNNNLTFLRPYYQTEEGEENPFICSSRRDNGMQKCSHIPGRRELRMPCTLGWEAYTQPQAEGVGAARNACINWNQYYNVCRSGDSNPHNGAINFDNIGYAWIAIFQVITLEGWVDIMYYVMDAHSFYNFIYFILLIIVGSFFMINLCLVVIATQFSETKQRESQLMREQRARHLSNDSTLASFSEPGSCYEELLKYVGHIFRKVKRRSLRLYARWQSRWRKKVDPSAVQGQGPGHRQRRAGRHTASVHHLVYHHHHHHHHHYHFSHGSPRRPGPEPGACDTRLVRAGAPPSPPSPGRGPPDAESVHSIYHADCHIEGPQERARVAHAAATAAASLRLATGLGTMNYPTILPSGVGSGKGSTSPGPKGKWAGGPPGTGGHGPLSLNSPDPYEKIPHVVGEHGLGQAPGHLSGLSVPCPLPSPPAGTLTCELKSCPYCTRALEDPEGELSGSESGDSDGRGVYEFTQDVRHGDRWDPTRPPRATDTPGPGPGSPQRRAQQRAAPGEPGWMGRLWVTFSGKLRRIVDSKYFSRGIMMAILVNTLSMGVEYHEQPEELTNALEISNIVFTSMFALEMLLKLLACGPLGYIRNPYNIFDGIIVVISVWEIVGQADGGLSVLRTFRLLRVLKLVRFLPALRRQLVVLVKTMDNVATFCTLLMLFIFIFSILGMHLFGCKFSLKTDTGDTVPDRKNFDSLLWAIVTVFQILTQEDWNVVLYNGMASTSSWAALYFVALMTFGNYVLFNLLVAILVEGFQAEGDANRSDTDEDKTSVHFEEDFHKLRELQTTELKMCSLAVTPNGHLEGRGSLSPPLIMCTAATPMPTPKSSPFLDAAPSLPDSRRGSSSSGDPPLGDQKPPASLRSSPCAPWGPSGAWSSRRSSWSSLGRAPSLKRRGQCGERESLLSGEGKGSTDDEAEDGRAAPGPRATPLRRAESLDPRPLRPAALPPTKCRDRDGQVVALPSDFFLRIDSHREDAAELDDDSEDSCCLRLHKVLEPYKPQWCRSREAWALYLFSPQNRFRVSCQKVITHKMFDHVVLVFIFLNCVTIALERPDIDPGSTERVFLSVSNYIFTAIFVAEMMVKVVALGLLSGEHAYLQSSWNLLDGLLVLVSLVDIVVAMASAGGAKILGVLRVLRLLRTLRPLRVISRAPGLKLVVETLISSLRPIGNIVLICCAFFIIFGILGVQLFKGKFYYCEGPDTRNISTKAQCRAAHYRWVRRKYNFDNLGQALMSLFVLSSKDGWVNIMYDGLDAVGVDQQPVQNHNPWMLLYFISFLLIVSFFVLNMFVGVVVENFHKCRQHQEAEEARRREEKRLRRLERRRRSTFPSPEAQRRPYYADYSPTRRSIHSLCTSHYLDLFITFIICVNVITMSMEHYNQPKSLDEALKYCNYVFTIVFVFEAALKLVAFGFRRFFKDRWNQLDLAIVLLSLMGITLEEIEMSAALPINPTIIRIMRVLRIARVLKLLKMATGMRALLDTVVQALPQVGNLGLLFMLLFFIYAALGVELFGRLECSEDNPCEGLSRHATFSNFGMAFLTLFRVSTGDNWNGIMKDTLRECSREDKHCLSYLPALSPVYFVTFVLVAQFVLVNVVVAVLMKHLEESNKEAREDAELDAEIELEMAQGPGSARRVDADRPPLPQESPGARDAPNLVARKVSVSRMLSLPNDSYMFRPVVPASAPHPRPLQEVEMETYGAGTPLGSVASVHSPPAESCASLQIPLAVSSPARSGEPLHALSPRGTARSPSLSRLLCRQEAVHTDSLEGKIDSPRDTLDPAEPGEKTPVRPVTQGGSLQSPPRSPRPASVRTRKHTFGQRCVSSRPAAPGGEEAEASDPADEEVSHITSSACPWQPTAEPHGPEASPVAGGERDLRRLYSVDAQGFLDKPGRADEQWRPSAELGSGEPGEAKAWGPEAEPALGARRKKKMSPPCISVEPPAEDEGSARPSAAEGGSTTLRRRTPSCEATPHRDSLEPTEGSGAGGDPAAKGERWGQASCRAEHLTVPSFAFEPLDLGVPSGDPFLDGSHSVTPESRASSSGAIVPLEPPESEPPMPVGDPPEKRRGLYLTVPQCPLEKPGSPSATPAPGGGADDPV

| SMILES | IC50 [nM] |
| --- | --- |
| C[C@@H](NC(=O)C1CC1c1c[nH]c2c(F)cccc12)c1ccc(OCC(F)(F)F)cn1 (stereo in doubt) [Example 108, trans-2-(7-fluoro-1H-indol-3-yl)-N-((R)-1-(5-(2,2,2-trifluoroethoxy)pyridin-2-yl)ethyl)cyclopropanecarboxamide] | ≤ 300 |
| C[C@@H](NC(=O)C1CC1c1c[nH]c2ccc(F)cc12)c1ccc(OCC(F)(F)F)cn1 (stereo in doubt) [Example 110, trans-2-(5-fluoro-1H-indol-3-yl)-N-((R)-1-(5-(2,2,2-trifluoroethoxy)pyridin-2-yl)ethyl)cyclopropanecarboxamide] | ≤ 300 |
| C[C@@H](NC(=O)C1CC1c1c[nH]c2ccc(C#N)cc12)c1ccc(OCC(F)(F)F)cn1 (stereo in doubt) [Example 111, trans-2-(5-cyano-1H-indol-3-yl)-N-((R)-1-(5-(2,2,2-trifluoroethoxy)pyridin-2-yl)ethyl)cyclopropanecarboxamide] | ≤ 300 |
| C[C@@H](NC(=O)C1CC1c1cc2ccccc2[nH]1)c1ccc(OCC(F)(F)F)cn1 (stereo in doubt) [Example 124, trans-2-(1H-indol-2-yl)-N-((R)-1-(5-(2,2,2-trifluoroethoxy)pyridin-2-yl)ethyl)cyclopropanecarboxamide] | ≤ 300 |
| C[C@@H](NC(=O)C1CC1c1cc2cc(F)ccc2[nH]1)c1ccc(OCC(F)(F)F)cn1 (stereo in doubt) [Example 125, trans-2-(5-fluoro-1H-indol-2-yl)-N-((R)-1-(5-(2,2,2-trifluoroethoxy)pyridin-2-yl)ethyl)cyclopropanecarboxamide] | ≤ 300 |
| C[C@@H](NC(=O)C1CC1c1ccc2cc[nH]c2c1)c1ccc(OCC(F)(F)F)nc1 (stereo in doubt) [Example 147, trans-2-(1H-indol-6-yl)-N-((R)-1-(6-(2,2,2-trifluoroethoxy)pyridin-3-yl)ethyl)cyclopropanecarboxamide] | ≤ 300 |
| C[C@@H](NC(=O)C1CC1c1ccc2ccn(C)c2c1)c1ccc(OCC(F)(F)F)cn1 (stereo in doubt) [Example 167, trans-2-(1-methyl-1H-indol-6-yl)-N-((R)-1-(5-(2,2,2-trifluoroethoxy)pyridin-2-yl)ethyl)cyclopropanecarboxamide] | ≤ 300 |
| C[C@@H](NC(=O)C1CC1c1c[nH]c2cc(F)ccc12)c1ccc(OCC(F)(F)F)cn1 (stereo in doubt) [Example 168, trans-2-(6-fluoro-1H-indol-3-yl)-N-((R)-1-(5-(2,2,2-trifluoroethoxy)pyridin-2-yl)ethyl)cyclopropanecarboxamide] | ≤ 300 |
| C[C@@H](NC(=O)C1CC1COc1ccc(Cl)cc1)c1ccc(OCC(F)(F)F)cn1 (stereo in doubt) [Example 169, trans-2-((4-chlorophenoxy)methyl)-N-((R)-1-(5-(2,2,2-trifluoroethoxy)pyridin-2-yl)ethyl)cyclopropanecarboxamide] | ≤ 300 |
| C[C@@H](NC(=O)C1CC1c1cc2cc(F)ccc2[nH]1)c1cnc(OCC(F)(F)F)cn1 (stereo in doubt) [Example 171, trans-2-(5-fluoro-1H-indol-2-yl)-N-((R)-1-(5-(2,2,2-trifluoroethoxy)pyrazin-2-yl)ethyl)cyclopropanecarboxamide] | ≤ 300 |
| C[C@@H](NC(=O)C1CC1c1cc2ccccc2cn1)c1ccc(OCC(F)(F)F)cn1 (stereo in doubt) [Example 172, trans-2-(isoquinolin-3-yl)-N-((R)-1-(5-(2,2,2-trifluoroethoxy)pyridin-2-yl)ethyl)cyclopropanecarboxamide] | ≤ 300 |
| C[C@@H](NC(=O)C1CC1c1cc2cc(F)ccc2[nH]1)c1ccc(OCC2CC2)cn1 (stereo in doubt) [Example 181, trans-N-((R)-1-(5-(cyclopropylmethoxy)pyridin-2-yl)ethyl)-2-(5-fluoro-1H-indol-2-yl)cyclopropanecarboxamide] | ≤ 300 |
| C[C@@H](NC(=O)C1CC1Cn1ccc2ccccc21)c1ccc(OCC(F)(F)F)cn1 (stereo in doubt) [Example 182, trans-2-((1H-indol-1-yl)methyl)-N-((R)-1-(5-(2,2,2-trifluoroethoxy)pyridin-2-yl)ethyl)cyclopropanecarboxamide] | ≤ 300 |
| C[C@@H](NC(=O)C1CC1c1ccc2ccn(CC3(C)COC3)c2c1)c1cnc(OCC(F)(F)F)cn1 (stereo in doubt) [Example 190, trans-2-(1-((3-methyloxetan-3-yl)methyl)-1H-indol-6-yl)-N-((R)-1-(5-(2,2,2-trifluoro-ethoxy)pyrazin-2-yl)ethyl)cyclopropanecarboxamide] | ≤ 300 |
| C[C@@H](NC(=O)C1CC1c1cc(F)cc(F)c1)c1cnc(OCC(F)(F)F)cn1 (stereo in doubt) [Example 194, trans-2-(3,5-difluorophenyl)-N-((R)-1-(5-(2,2,2-trifluoroethoxy)pyrazin-2-yl)ethyl)cyclopropanecarboxamide] | ≤ 300 |
| COc1ccc(C2CC2C(=O)N[C@H](C)c2ccc(OCC(F)(F)F)cn2)cc1C (stereo in doubt) [Example 202, trans-2-(4-methoxy-3-methylphenyl)-N-((R)-1-(5-(2,2,2-trifluoroethoxy)pyridin-2-yl)ethyl)cyclopropanecarboxamide] | ≤ 300 |
| C[C@@H](NC(=O)C1CC1c1ccc2ccccc2n1)c1ccc(OCC(F)(F)F)nc1 (stereo in doubt) [Example 205, trans-2-(quinolin-2-yl)-N-((R)-1-(6-(2,2,2-trifluoroethoxy)pyridin-3-yl)ethyl)cyclopropanecarboxamide] | ≤ 300 |
| C[C@@H](NC(=O)C1CC1c1ccc2cccnc2c1)c1ccc(OCC(F)(F)F)nc1 (stereo in doubt) [Example 206, trans-2-(quinolin-7-yl)-N-((R)-1-(6-(2,2,2-trifluoroethoxy)pyridin-3-yl)ethyl)cyclopropanecarboxamide] | ≤ 300 |
| C[C@@H](NC(=O)C1CC1c1ccc2ncccc2c1)c1ccc(OCC(F)(F)F)nc1 (stereo in doubt) [Example 207, trans-2-(quinolin-6-yl)-N-((R)-1-(6-(2,2,2-trifluoroethoxy)pyridin-3-yl)ethyl)cyclopropanecarboxamide] | ≤ 300 |
| C[C@@H](NC(=O)C1CC1c1ccc2ccn(C)c2c1)c1ccc(OCC(F)(F)F)nc1 (stereo in doubt) [Example 208, trans-2-(1-methyl-1H-indol-6-yl)-N-((R)-1-(6-(2,2,2-trifluoroethoxy)pyridin-3-yl)ethyl)cyclopropanecarboxamide] | ≤ 300 |
| C[C@@H](NC(=O)C1CC1c1cnc2ccccc2c1)c1ccc(OCC(F)(F)F)nc1 (stereo in doubt) [Example 211, trans-2-(quinolin-3-yl)-N-((R)-1-(6-(2,2,2-trifluoroethoxy)pyridin-3-yl)ethyl)cyclopropanecarboxamide] | ≤ 300 |
| C[C@@H](NC(=O)C1CC1c1cccc2cc[nH]c12)c1ccc(OCC(F)(F)F)nc1 (stereo in doubt) [Example 212, trans-2-(1H-indol-7-yl)-N-((R)-1-(6-(2,2,2-trifluoroethoxy)pyridin-3-yl)ethyl)cyclopropanecarboxamide] | ≤ 300 |
| C[C@@H](NC(=O)C1CC1c1ccc2ccn(CC3(C)COC3)c2c1)c1ccc(OCC(F)(F)F)nc1 (stereo in doubt) [Example 213, trans-2-(1-((3-methyloxetan-3-yl)methyl)-1H-indol-6-yl)-N-((R)-1-(6-(2,2,2-trifluoro-ethoxy)pyridin-3-yl)ethyl)cyclopropanecarboxamide] | ≤ 300 |
| C[C@@H](NC(=O)[C@H]1C[C@@H]1c1cccc(OCc2ccccc2)c1)c1ccc(OCC(F)(F)F)cn1 (stereo in doubt) [Example 240, (1S*,2S*)-2-(3-(benzyloxy)phenyl)-N-((R)-1-(5-(2,2,2-trifluoroethoxy)pyridin-2-yl)ethyl)cyclopropanecarboxamide] | ≤ 300 |
| C[C@@H](NC(=O)C1CC1c1nc2ccccc2n1C)c1ccc(OCC(F)(F)F)cn1 (stereo in doubt) [Example 243, trans-2-(1-methyl-1H-benzo[d]imidazol-2-yl)-N-((R)-1-(5-(2,2,2-trifluoroethoxy)pyridin-2-yl)ethyl)cyclopropanecarboxamide] | ≤ 300 |
| C[C@@H](NC(=O)C1CC1c1nc2ccccc2n1C)c1cnc(OCC(F)(F)F)cn1 (stereo in doubt) [Example 244, trans-2-(1-methyl-1H-benzo[d]imidazol-2-yl)-N-((R)-1-(5-(2,2,2-trifluoroethoxy)pyrazin-2-yl)ethyl)cyclopropanecarboxamide] | ≤ 300 |
| C[C@@H](NC(=O)C1CC1c1nc2ccccc2n1C)c1ccc(OCC(F)(F)F)nc1 (stereo in doubt) [Example 245, trans-2-(1-methyl-1H-benzo[d]imidazol-2-yl)-N-((R)-1-(6-(2,2,2-trifluoroethoxy)pyridin-3-yl)ethyl)cyclopropanecarboxamide] | ≤ 300 |

Reference: US9101616B2, “Aryl substituted carboxamide derivatives as calcium or sodium channel blockers” (RaQualia Pharma Inc., priority 2009, dated 2015)
